Results reported in ChEMBL document CHEMBL4396906, “Design, synthesis and activity of novel 2,6-disubstituted purine derivatives, potential small molecule inhibitors of signal transducer and activator of transcription 3” (Eur J Med Chem, 2019).

System: MDA-MB-231
Experiment: Induction of apoptosis in human MDA-MB-231 cells assessed as late apoptotic cells at 1 uM after 24 hrs by Annexin V-FITC/propidium iodide staining-based flow cytometric analysis (reference value: 2%)
Type: functional

O=C(Nc1nc(NCc2ccc(Cl)cc2)c2nc[nH]c2n1)c1ccccc1
Activity: 4.23%
